Consider 7 molecules from patent US4259332A, “Novel taurine derivatives” (priority 1979, dated 1981).

Experiment [1] is described as follows: Vasodilator activity (vasodilation of the ocular conjunctiva in guinea pigs). Type of experiment: in vivo, guinea pig.
A short description of experiment [2]: Antilipemic action, Morris or Handler diet, Compound A. Type of experiment: in vivo, Wistar rat. As to conditions: 50 days, 200 mg/kg orally. The method, then: Wistar rats were treated for 50 days with a Morris diet or a Handler diet. Simultaneously with the diet they received 200 mg/kg of Compound A or of choline orally every day. The controls only received the diet. The following were examined at the end of the treatment: (a) total cholesterol, total lipids and beta-lipoproteins in the serum, (b) BSF excretion in the bile.

Experiment [3] is described as follows: Antilipemic action, Morris, Handler or Nath diet, Compound B. Type of experiment: in vivo, Wistar rat. As to conditions: 45 days, 200 mg/kg orally. The method, then:
Wistar rats were treated for 45 days with a Morris diet, a Handler diet or a Nath diet. Simultaneously with the diet they received each day 200 mg/kg of Compound B or choline (except for the Nath diet) orally.

Experiment [4] in a line: Choleretic activity in cannulated rats. Type of experiment: in vivo, rat. The note with it: for Bile dry residue change / Bile volume change / Bile dry residue after 2 h / Bile volume after 2 h: 100 mg/kg i.v.; for Bile dry residue after 2 h / Bile volume after 2 h: given after first hour; for Bile dry residue after 1 h / Bile volume after 1 h: before treatment (first hour). The method, then: Rats were fitted with a cannula, the bile volume was measured after the first hour, they were then treated with a test compound and the bile volume was measure after the second hour, so as to determine the percentage change. The various compounds were administered intravenously at a dose of 100 mg/kg.

A short description of experiment [5]: Protection against hepatic intoxication by CCl4 and cold, Compound B (BSF in blood). In kind it is in vivo. As to conditions: 500 mg/kg endoperitoneal. The method, then: Oral administration of 5 ml/kg of a 20% solution of CCl4 in oil, with simultaneous endoperitoneal administration of 500 mg/kg of Compound B, was followed by exposure for 5 hours at 4° C. BSF in the blood (30 mg/kg i.v.) was tested. A comparison product, homocysteinethiolactone (OCT) was employed.
10 Animals were treated per group, and the results expressed as percentage change with respect to the controls were as shown in Table 4.

Turning to `O=C(OC1C(OC(=O)c2cccnc2)C(OC(=O)c2cccnc2)C(OC(=O)c2cccnc2)C(OC(=O)c2cccnc2)C1OC(=O)c1cccnc1)c1cccnc1` (stereo not shown) [Mesoinosital hexanicotinate, mesoinosital hexanicotinate], in experiment [1] (1.0 mg/kg endoperitoneal), the “Vasodilator effect: duration” value was found to be 0 min and the “Vasodilator effect: positive response” value stood at 0%. In experiment [1] (10.0 mg/kg endoperitoneal), the “Vasodilator effect: duration” value came to 87 min, the “Vasodilator effect: positive response” value came out at 100% and the “Vasodilator effect: time of appearance” value was found to be 81 s.

`C[N+](C)(C)CCO` [Choline, choline, reference compound]: in experiment [2] (Handler diet), the “Bile BSF excretion, percentage change vs controls” value is reported as -39.5%; the “Serum total cholesterol, percentage change vs controls” value is on record as -21.1%; the “Serum total lipids, percentage change vs controls” value was “+44.2%”. For the same molecule, in experiment [2] (Morris diet), the “Bile BSF excretion, percentage change vs controls” value was -2.8%; the “Serum beta-lipoproteins, percentage change vs controls” value is “+89.8%”; the “Serum total cholesterol, percentage change vs controls” value is listed as -22.9%; the “Serum total lipids, percentage change vs controls” value is on record as “+2.3%”. In experiment [3] (Handler diet, B and Choline), the “Bile BSF, percentage change vs control” value is -39.5%; the “Liver total lipids, percentage change vs control” value was -29.2%; the “Serum total cholesterol, percentage change vs control” value is on record as -21.1%; the “Serum total lipids, percentage change vs control” value is “+44.2%”. Besides, in experiment [3] (Morris diet), the “Bile BSF, percentage change vs control” value is on record as -2.8%; the “Liver total lipids, percentage change vs control” value is on record as “+14.0%”; the “Serum beta-lipoproteins, percentage change vs control” value is recorded as “+89.8%”; the “Serum total cholesterol, percentage change vs control” value was -22.9%. Further, the “Serum total lipids, percentage change vs control” value in experiment [3] (Morris diet) is listed as “+2.3%”.

In the case of `O=C(O)C(O)C(O)C(=O)O.OCc1cccnc1` (stereo not shown) [3-Pyridylcarbinol tartrate, 3-pyridylcarbinol tartrate], the entries for the “Vasodilator effect: duration” value in experiment [1] (0.1 mg/kg endoperitoneal) and in experiment [1] (10.0 mg/kg endoperitoneal) were 0 min and 120 min, respectively. Further, the “Vasodilator effect: positive response” value in experiment [1] (0.1 mg/kg endoperitoneal) is given as 0%; in experiment [1] (1.0 mg/kg endoperitoneal), 40%; in experiment [1] (10.0 mg/kg endoperitoneal), 100%. Further, the “Vasodilator effect: time of appearance” value in experiment [1] (0.1 mg/kg endoperitoneal) stood at 0 s; in experiment [1] (10.0 mg/kg endoperitoneal) it was 57 s.

Turning to `CCC(C(=O)O)C1(O)CCC(c2ccccc2)CC1` (stereo not drawn) [α-(1-hydroxy-4-phenylcyclohexyl)butyric acid], in experiment [4], the “Bile dry residue change” value is given as “+39.1%”, the Bile volume change entry was “+90.0%”, the “Bile dry residue after 2 h” value amounted to 32.7 mg/h and the “Bile volume after 2 h” value came out at 1.14 mL/h. In experiment [4], the “Bile dry residue after 1 h” value was 23.5 mg/h and the “Bile volume after 1 h” value came to 0.60 mL/h.

For the molecule `O=C(O)c1cccnc1` [Nicotinic acid, nicotinic acid], in experiment [1] (10.0 mg/kg endoperitoneal), the “Vasodilator effect: duration” value worked out at 0 min, the “Vasodilator effect: positive response” value was 0% and the “Vasodilator effect: time of appearance” value came to 0 s. In addition, the “Vasodilator effect: positive response” value in experiment [1] (25.0 mg/kg endoperitoneal) stood at 20%. In experiment [1] (50.0 mg/kg endoperitoneal), the “Vasodilator effect: duration” value is 87 min, the “Vasodilator effect: positive response” value is on record as 80% and the “Vasodilator effect: time of appearance” value is 180 s.

On to `NC1CCSC1=O` (stereo not shown) [OCT, homocysteinethiolactone, reference compound], for which the “Hepatic intoxication protection, percentage change of BSF in blood vs controls” value in experiment [5] (test number 1) is -22.7%; in experiment [5] (test number 2), -18.5%.

Take `O=S(=O)(O)CCNCCO` [N-hydroxyethyltaurine]: in experiment [4], the “Bile dry residue change” value is reported as -10.9%, the Bile volume change is -12.2%, the “Bile dry residue after 2 h” value came to 26.0 mg/h and the “Bile volume after 2 h” value turned out to be 0.72 mL/h. In experiment [4], the “Bile dry residue after 1 h” value is given as 29.1 mg/h and the “Bile volume after 1 h” value turned out to be 0.82 mL/h.
